Assay results from patent US7792665B2, “Method for designing a compound based on the three dimensional structure of phosphoinositide dependent protein kinase 1 (PDK1)” (Medical Research Council, priority 2002, dated 2010).
Substitutions are numbered along the chain they refer to. Where a SMILES comes first, the peptide text is derived from it. [ ]: non-standard residue; d: D form. pT = C[C@@H](OP(=O)(O)O)[C@H](N)C(=O)O

What was measured:
PDK1[R131A] = molecular target: T1, PDK1[R131A] (Homo sapiens, UniProt O15530, R131A); test: PDK1 catalytic activity towards T308tide, activation by peptides, PDK1[R131A]; assay type: biochemical
T1 construct: GST (N); made in house; host or cells: human embryonic kidney 293 cells (pEBG2T vector)
T1 sequence (O15530 1-556 R131A): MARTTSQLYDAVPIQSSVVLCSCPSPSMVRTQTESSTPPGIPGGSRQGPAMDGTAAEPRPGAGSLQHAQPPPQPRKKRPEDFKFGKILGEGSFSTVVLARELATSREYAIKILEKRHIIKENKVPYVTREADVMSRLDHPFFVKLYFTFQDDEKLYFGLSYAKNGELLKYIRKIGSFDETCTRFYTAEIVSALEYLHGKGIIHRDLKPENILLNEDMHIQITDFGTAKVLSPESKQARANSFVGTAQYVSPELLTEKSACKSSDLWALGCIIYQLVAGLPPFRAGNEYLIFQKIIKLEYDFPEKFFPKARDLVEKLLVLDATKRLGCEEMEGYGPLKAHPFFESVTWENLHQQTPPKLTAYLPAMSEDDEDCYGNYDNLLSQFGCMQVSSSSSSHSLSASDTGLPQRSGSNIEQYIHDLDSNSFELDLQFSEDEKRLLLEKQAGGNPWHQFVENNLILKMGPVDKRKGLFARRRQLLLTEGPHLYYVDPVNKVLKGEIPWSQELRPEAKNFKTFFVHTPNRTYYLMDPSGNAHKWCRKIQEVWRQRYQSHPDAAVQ
Protocol: (§1) C. Activation of the indicated forms of PDK1 by 56K-pHM and S6K-HM. PDK1 activity was measured using the peptide substrate (T308tide) in the presence of the indicated concentrations of 56K-pHM (closed circles) and S6K-HM (open circles) as described in the methods. Assays were performed in triplicate and similar results obtained in 2 separate experiments. The results are the average—SD for a single experiment.
(§2) The ability of wild type and mutant PDK1 to phosphorylate the synthetic peptide T308tide ([…] ([Biondi et al., 2000]) (SEQ ID NO:108) was carried out in 30 μl assays containing 100 ng of wild type or mutant PDK1, 50 mM Tris/HCl pH 7.5, 0.1% 13-mercaptoethanol, 10 mM MgCl2, 100 μM [32γ P]ATP (200 cpm/pmol), 0.5 μM microcystin-LR, 1 mM T308tide in the presence or absence of the indicated concentrations of the 56K-pHM peptide ([…](P)YVAPSV) (SEQ ID NO:104) or 56K-HM. peptide ([…]) (SEQ ID NO:105). After incubation for 10 min at 30° C., 25 μl of the resultant mixture was spotted into P81 phosphocellulose paper (2×2 cm) and the papers washed and analysed as described previously for assays of MAP kinase. Control assays were carried out in parallel in which either PDK1, or peptide substrate were omitted; these values were always less than 5% of the activity measured in the presence of these reagents. One Unit of PDK1 activity was defined as that amount required to catalyse the phosphorylation of 1 nmol of the T308tide in 1 min.

wild type PDK1 [1] = molecular target: T2, wild type PDK1 (Homo sapiens, UniProt O15530); test: PDK1 catalytic activity towards T308tide, activation by peptides, wild type PDK1; assay type: biochemical; design: made in house; conditions: T308tide substrate
T2 sequence (O15530 1-556): T1 sequence (O15530 1-556 R131A) with A131R
Protocol: as §1
as §2, with “One Unit of PDK1 activity was defined as that amount required to catalyse the phosphorylation of 1 nmol of the T308tide in 1 min.” left out

wild type PDK1 [2] = molecular target: T2, wild type PDK1; test: Surface plasmon resonance (BiaCore) binding of hydrophobic motif peptides, wild type PDK1; design: made in house; host or cells: human embryonic kidney 293 cells (pEBG2T vector); conditions: BiaCore
Protocol: Binding and activation of wild type and mutant forms of PDK1 to a phosphopeptide derived from the hydrophobic motif of S6K1. The binding of the wild type (wt) PDK1 and indicated mutants to a phosphopeptide comprising the hydrophobic motif of S6K1 (S6K-pHM: […]*YVAPSV, where T* indicates phospho-threonine, SEQ ID NO:104) was analysed by surface plasmon resonance as described in the Materials and Methods.
A. The sensor chip SA was coated with 12RUs of the biotinylated S6K-pHM peptide and the binding was analysed following injection of 270 nM wild type PDK1, PDK1 [T148A] and PDK1 [K76A]. […] (data not shown).
B. As in A. except that binding was analysed over a range of PDK1 concentrations (2-2150 nM). The response level at the steady state binding is plotted versus the log of the PDK1 concentration. The estimated Kd was obtained by fitting the data to a sigmoid curve using Kaleidagraph software.
Binding was analysed in a BiaCore 3000 system (BiaCore AB, Stevenage, UK). Biotinylated S6K-pHM (Biotin-C12-[…](P)YVAPSV) (SEQ ID NO:104) or the non-phosphorylated form of this peptide S6K-HM was bound to an streptavidin-coated Sensor chip (SA) (12 response units, RU). 30 μl of wild type or the indicated mutant GST-PDK1 were injected at a flow rate of 30 μl/min, in buffer HBS-P (10 mM HEPES pH 7.4, 0.15M NaCl, 0.005% (by vol) polysorbate-20) supplemented with 1 mM DTT. Specific interactions between 56K-pHM and PDK1 proteins were obtained between the concentration range of 2-2150 nM PDK1. Steady state binding was determined at each concentration. Dissociation of PDK1 from the phospho-peptide was monitored over a 1 min period. Regeneration of the sensor chip surface was performed with 1{tilde over (0)} μl injections of 0.05% SDS. […] (RUmax=435). For all PDK1 construct tested, the off rates for S6Kp-HM were high in comparison to those of PIFtide binding with the time taken for 50% dissociation to occur for 56K-pHM is 30s compared to 1000s for PIFtide.

CC(C)C[C@H](NC(=O)[C@H](Cc1ccccc1)NC(=O)[C@@H](NC(=O)[C@H](CCC(N)=O)NC(=O)[C@H](CC(N)=O)NC(=O)[C@H](C)NC(=O)[C@H](CO)NC(=O)[C@H](CCC(=O)O)NC(=O)[C@@H](N)CO)C(C)C)C(=O)NCC(=O)N[C@@H](Cc1ccccc1)C(=O)N[C@H](C(=O)N[C@@H](Cc1ccc(O)cc1)C(=O)N[C@H](C(=O)N[C@@H](C)C(=O)N1CCC[C@H]1C(=O)N[C@@H](CO)C(=O)N[C@H](C(=O)O)C(C)C)C(C)C)[C@@H](C)OP(=O)(O)O [S6K-pHM] (H-SESANQVFLGF[pT]YVAPSV-OH; N-terminus and C-terminus assumed)
activation of PDK1[R131A] (PDK1[R131A]; peptide 0.3 and 1 mM): only moderately further increased
activation of PDK1[R131A] (PDK1[R131A]; peptide below 0.1 mM): not significantly activated
maximal activation of PDK1 (wild type PDK1 [1]): 5 fold
time taken for 50% dissociation of PDK1 from peptide (wild type PDK1 [2]; all PDK1 constructs tested): 30 s
lower affinity of wild type PDK1 for peptide in comparison to PIFtide (wild type PDK1 [2]; overall): approximately 100 fold
